Common to all, as to test: DTP human tumour cell line panel, 48 h
Assay [1] has as its system NCI/ADR-RES ovarian.
In assay [2] the test system is OVCAR-8 ovarian.
Assay [3] concerns LOX IMVI melanoma.
The test system of assay [4] is COLO 205 colon.
Assay [5] relates to RXF 393 renal.
In assay [6] the test system is RPMI-8226 leukemia.
Assay [7] concerns IGROV1 ovarian.
The subject of assay [8] is HCT-15 colon.
The subject of assay [9] is MALME-3M melanoma.
Assay [10] concerns SF-295 CNS.

Structures are written as SMILES.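 Dose response: 5 concentrations. Exposure: 48 h. Format: 96-well plates. Endpoint: linear interpolation; highest concentration if not reached. The concentration for 50% growth inhibition is given as GI50. The concentration for full growth arrest is given as TGI.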

Turning to `CC(C)=CCC/C(C)=C/CC/C(=C/COP(=O)(OCc1ccc([N+](=O)[O-])o1)N(C)CCCCCl)C(C)(C)C` (centres undefined), the GI50 in assay [1] is 16.3 µM; in [2] it was 10.7 µM; in assay [3], 1.28 µM; in assay [4], 15.9 µM; in [5], 7.84 µM; in [6], 1.45 µM. Besides, the GI50 in assay [7] was 6.29 µM; in [8] it was 1.66 µM. The TGI is 38.5 µM in assay [1]; 36.1 µM in [2]; 4.68 µM in assay [3]; 53.1 µM in assay [4]; 26.5 µM in [5]; 12.3 µM in assay [6]. For the same compound, the TGI in assay [7] is 22.5 µM; in assay [8], 6.79 µM.
`CCCCCCCCCC(=O)OCC1OC(n2cc(F)c(=O)[nH]c2=O)C(N)C(OC(=O)CCCCCCCCC)C1O` (centres undefined): the total growth inhibition concentration (TGI) in [9] is 35.2 µM; in assay [2], 34.6 µM; in assay [3], 30.1 µM; in assay [4] it was 31.2 µM; in assay [5], 31.9 µM; in assay [6], 48.4 µM. In addition, the results for the total growth inhibition concentration (TGI) in assay [7], in [8] and in assay [10] were more than 100 µM, 34.7 µM and 31.9 µM, respectively.
For `COc1ccc(OC)c2cc(C3(C)SCCCS3)ccc12`, the total growth inhibition concentration (TGI) in assay [9] was more than 100 µM; in assay [2], more than 100 µM; in assay [3] it was more than 100 µM; in assay [4] it was more than 100 µM; in assay [5], 77 µM; in assay [6] it was more than 100 µM. Moreover, the TGI in assay [7], in [8] and in assay [10] was more than 100 µM throughout.
In the case of `Cc1ccc(C2=NO[C@@H]3C(=O)N(c4ccc(Cc5ccc(N6C(=O)[C@H]7C(c8ccc(C)cc8)=NO[C@H]7C6=O)cc5)cc4)C(=O)[C@H]23)cc1`, the TGI in assay [9], in assay [2], in assay [3], in assay [4], in [5] and in assay [6] was more than 100 µM in each case. Also, the total growth inhibition concentration (TGI) in assay [7], in [8] and in assay [10] was more than 100 µM throughout.
As for `CCN(CC)c1ccc2c(c1)N=C1N=CC=CN1C2(c1ccc(N(C)C)cc1)c1ccc(N(C)C)cc1`, the total growth inhibition concentration (TGI) in assay [9] was determined as 27.4 µM; in assay [2], 17.5 µM; in [3], 18.4 µM; in assay [4] it was 6.53 µM; in assay [5], 23.2 µM; in assay [6], 8.1 µM. Besides, the results for the concentration for total growth inhibition (TGI) in assay [7], in [8] and in assay [10] were 26.9 µM, 28.1 µM and 15.6 µM, respectively.
`CC[C@H](C)C(=O)O[C@H]1CCC=C2C=C[C@H](C)C(CCC3C[C@@H](O)CC(=O)O3)[C@H]21` (some centres undefined): the GI50 in assay [1] is 2.3 µM; in assay [2], 3.78 µM; in assay [3], 0.965 µM; in [4], 10.5 µM; in [5], 3.65 µM; in [8], 4.83 µM. Besides, the GI50 in assay [10] is 1.58 µM. The TGI is more than 100 µM in [1]; more than 100 µM in [2]; more than 100 µM in assay [3]; 36.8 µM in [4]; 24.4 µM in assay [5]; more than 100 µM in assay [8]. This compound also yielded a TGI in [10] of more than 100 µM.
Take `CSC(=S)NNC(=O)c1ccncc1`: the concentration for total growth inhibition (TGI) was 35.3 µM in assay [9]; 40.6 µM in assay [2]; 33.6 µM in assay [3]; more than 100 µM in [4]; 31.8 µM in assay [5]; 47.8 µM in [6]. Moreover, the concentration for total growth inhibition (TGI) in assay [7] came to 32.7 µM; in assay [8], 28.3 µM; in assay [10], 46.9 µM.
Regarding `CC(C)(O)[C@H]1[C@@H]2OC(=O)[C@H]1[C@]1(O)C[C@H]3OC34C(=O)O[C@H]2[C@@]41C` (some centres undefined) (tested in a mixture with another compound), the TGI in assay [9], in assay [2], in assay [3], in [4], in assay [5] and in assay [6] was more than 100 µM in each case. The concentration for total growth inhibition (TGI) in [7], in [8] and in assay [10] was more than 100 µM each time.
On to `CCN(CC)CCOc1cc2c(C(=O)OC)c(C)oc2cc1C(C)=O`, for which the GI50 in assay [1] is 13.6 µM; in assay [2], 13.4 µM; in assay [3], 10.2 µM; in assay [4] it was 8.27 µM; in assay [5], 17.9 µM; in assay [6], 2.76 µM. Moreover, the results for the GI50 in assay [7], in assay [8] and in assay [10] were 8.53 µM, 10.5 µM and 14.8 µM, respectively. Besides, the TGI in [1] is 26.6 µM; in assay [2] it was 30.3 µM; in assay [3], 22 µM; in assay [4], 26.6 µM; in [5], 41 µM; in assay [6], 7.39 µM. Besides, the TGI is 33 µM in [7], 22.7 µM in assay [8] and 29.1 µM in assay [10].
Regarding `CC1OC(O)CC(OC(=O)c2ccccc2)C1OC(=O)c1ccccc1` (centres undefined), the TGI in assay [9] is 30.2 µM; in assay [2], 31.6 µM; in [3], 23.1 µM; in [4] it was 80.9 µM; in assay [5] it was 39.3 µM; in [6] it was 31.8 µM. Besides, the TGI is more than 100 µM in [7], 29.3 µM in assay [8] and more than 100 µM in assay [10].
On to `COC(=O)C1=CC2OC1(C)C1(CC1)C2=O` (centres undefined), for which the concentration for total growth inhibition (TGI) in assay [9] is 27.8 µM; in assay [2], 31.3 µM; in assay [3], 28.5 µM; in assay [4] it was 33.5 µM; in assay [5], 28.9 µM; in assay [6], 30.3 µM. The TGI in [7] worked out at 35.9 µM; in assay [8], 40 µM; in [10], 34.4 µM.
`CNC1C(O)CC(OC2C/C=C(\C)C/C(C)=C/C=C/CCC(C)CNC(=O)/C=C/C=C/C2C)OC1C` (centres undefined): the TGI was found to be 3 µM in assay [9]; 1.18 µM in assay [2]; 0.263 µM in assay [3]; 0.679 µM in assay [4]; 2.43 µM in assay [5]; 0.548 µM in assay [6]. For the same compound, the figures for the total growth inhibition concentration (TGI) in assay [7], in assay [8] and in [10] were 2.58 µM, 0.531 µM and 0.682 µM, respectively.

The term GI50 denotes the concentration that inhibits growth by half. As a reminder, the TGI is the concentration giving total growth inhibition. A high value points to lower sensitivity of the cells.

For the origin of these results see PubChem BioAssay (NCI).
